Reference: ChEMBL document CHEMBL4020848, “Antibacterial Activity Affected by the Conformational Flexibility in Glycine-Lysine Based α-Helical Antimicrobial Peptides” (J Med Chem, 2018)
In brackets after ≈: the same amount, converted by molar mass. Activity calls are given as the source filed them. The calls are words filed in the database; no cut-off is given here.

Columns and labels:
Escherichia coli [1] = assay: Bactericidal activity against Escherichia coli ATCC 25922 after 18 hrs by microdilution method; assay type: functional; conditions: ATCC 25922, 18 h, read-out: MBC=>99.9
Escherichia coli [2] = assay: Induction of membrane permeabilization in Escherichia coli ATCC 25922 assessed as loss of pili/flagella at MBC after 1 hr by atomic force microscopic method; assay type: functional
Escherichia coli [3] = assay: Induction of membrane permeabilization in Escherichia coli ATCC 25922 assessed as loss of pili/flagella at MIC after 1 hr by atomic force microscopic method; assay type: functional
[4] = Cytotoxicity against human peripheral blood leukocytes assessed as cell viability at 0.18 uM after 24 hrs by acridine orange/ethidium bromide staining based fluorescence microscopic method relative to control; parameters: species or system Leukocyte; conditions: read-out: Activity

## CC[C@H](C)[C@H](NC(=O)CN)C(=O)NCC(=O)N[C@@H](C)C(=O)N[C@H](C(=O)N[C@@H](CC(C)C)C(=O)N[C@@H](CCCCN)C(=O)N[C@H](C(=O)N[C@@H](CC(C)C)C(=O)N[C@H](C(=O)N[C@H](C(=O)NCC(=O)N[C@@H](CC(C)C)C(=O)N1CCC[C@H]1C(=O)N[C@@H](C)C(=O)N[C@@H](CC(C)C)C(=O)N[C@H](C(=O)N[C@@H](CO)C(=O)N[C@@H](Cc1c[nH]c2ccccc12)C(=O)N[C@H](C(=O)N[C@@H](CCCCN)C(=O)N[C@@H](CCCNC(=N)N)C(=O)N[C@@H](CCCCN)C(=O)N[C@@H](CCCNC(=N)N)C(=O)N[C@@H](CCC(N)=O)C(=O)N[C@@H](CCC(N)=O)C(N)=O)[C@@H](C)CC)[C@@H](C)CC)[C@@H](C)O)[C@@H](C)O)C(C)C)C(C)C [MELITTIN]
Escherichia coli [1]
  MBC: 20 µM (≈ 56.9 µg/mL)
Escherichia coli [2]
  Activity: Active
Escherichia coli [3]
  Activity: Active
[4]
  viability at 24 h, 0.18 µM: 60%
